Measurements reported in US6197535A, “Methods for purifying and assaying a conus γ-carboxylase” (University of Utah Research Foundation, priority 1999, dated 2001).
No end group written: not given here.

Legend:
Format in all cases: biochemical
[1] = test system: Conus γ-glutamyl carboxylase (Conus radiatus venom duct microsomes); settings: for IC50: read-out: apparent IC50; for Km: read-out: apparent Km
[2] = biological target: T1, bovine microsomal γ-glutamyl carboxylase (Bos taurus, UniProt Q07175)
T1 construct: For experiments with bovine microsomes, 380 μg of microsomal protein was present in each reaction; from tissue; host or cells: bovine microsomes, gift of Dr. D. W. Stafford
T1 sequence (Q07175 1-758): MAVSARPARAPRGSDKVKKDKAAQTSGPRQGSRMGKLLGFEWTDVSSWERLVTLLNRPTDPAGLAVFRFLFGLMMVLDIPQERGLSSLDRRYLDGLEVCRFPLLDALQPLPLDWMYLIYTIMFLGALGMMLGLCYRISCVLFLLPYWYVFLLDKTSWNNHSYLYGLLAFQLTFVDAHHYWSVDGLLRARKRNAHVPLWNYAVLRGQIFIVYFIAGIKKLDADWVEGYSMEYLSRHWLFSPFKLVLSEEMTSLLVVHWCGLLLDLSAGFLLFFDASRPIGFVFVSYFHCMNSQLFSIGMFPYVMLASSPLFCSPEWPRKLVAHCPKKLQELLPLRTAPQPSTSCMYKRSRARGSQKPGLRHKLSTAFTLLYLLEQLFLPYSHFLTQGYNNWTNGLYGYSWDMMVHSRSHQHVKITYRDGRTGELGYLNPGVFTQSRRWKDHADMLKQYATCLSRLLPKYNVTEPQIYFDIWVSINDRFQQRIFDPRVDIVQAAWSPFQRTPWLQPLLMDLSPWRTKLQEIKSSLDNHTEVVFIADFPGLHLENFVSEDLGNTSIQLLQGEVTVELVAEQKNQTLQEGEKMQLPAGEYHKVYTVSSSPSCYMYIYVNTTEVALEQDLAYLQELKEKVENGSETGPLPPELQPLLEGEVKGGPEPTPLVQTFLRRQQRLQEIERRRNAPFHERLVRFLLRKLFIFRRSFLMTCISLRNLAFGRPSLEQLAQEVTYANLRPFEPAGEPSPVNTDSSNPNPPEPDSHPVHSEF

Conus γ-carboxylase = test system: Conus γ-carboxylase

## ALKAEPVLLQKSAARSTDDN [Pro (-40 to -21)]
[1]
  effect on the carboxylation of FLEEL or E.ConG: no effect
  inhibition of carboxylation of -10.Pro-E.Con-G: did not inhibit
  IC50: > 1000 µM

## FLEEL [reference compound]
[1]
  pmol 14CO2 Incorporated: 818 pmol
  Km: 301 ± 6 µM
[2]
  pmol 14CO2 Incorporated: 249 pmol

## GKDRLTQMKRILKQRGNKARFLEEL-NH2 [-20.Pro-FLEEL]
[1]
  Km: 4 µM

## GKDRLTQMKRILKQRGNKARGEEELQENQELIREKSN-NH2 [-20.Pro-E.Con-G]
[1]
  pmol 14CO2 Incorporated: 2741 pmol
  substrate quality for γ-carboxylation, Conus enzyme: excellent substrate
  Km: 28 ± 3 µM
[2]
  pmol 14CO2 Incorporated: 3 pmol
  substrate quality for γ-carboxylation, mammalian enzyme: extremely poor
Conus γ-carboxylase
  Glu residues carboxylated (Gla analysis of reaction product): Glu2 was not carboxylated. The rest of the Glu residues were carboxylated, although Glu14 was not efficiently carboxylated

## GTGTLDDGGALTERRSADAT [Pro (-60 to -41)]
[1]
  effect on the carboxylation of FLEEL or E.ConG: no effect
  inhibition of carboxylation of -10.Pro-E.Con-G: did not inhibit
  IC50: > 1000 µM

## ILKQRGNKARGEEELQENQELIREKSN-NH2 [-10.Pro-E.Con-G]
[1]
  Km: 1840 ± 109 µM

## KSAARSTDDNGKDRLTQMKRILKQRGNKAR [Pro (-30 to -1)]
[1]
  IC50: 200 µM
